# Active and inactive are the calls of the source.
# What was measured:
# [1] = luciferase reporter signal suppression in cells – H4 neuroglioma cells, luminescence, dose response (AID 1990); format: functional, cell-based
# [2] = Luminescence Cell-Based Dose Response HTS to Identify Inhibitors of 5'UTR Stem-Loop Driven Prion Protein mRNA Translation in H4 Neuroglioblastoma Cells. [Related pubchem assays: 1827 (Project Summary), 1813 (Primary HTS)]; format: functional
# [3] = alpha-synuclein stem-loop luciferase translation blockers – H4 neuroglioma cells, luminescence, confirmation (AID 1988); format: functional, cell-based
# [4] = target: T1, Mannose-6-phosphate isomerase (Homo sapiens, UniProt P34949); assay: MPI enzyme activity inhibition – biochemical, fluorescence intensity, coupled assay, primary screen (AID 1209)
# T1 sequence (P34949 whole entry): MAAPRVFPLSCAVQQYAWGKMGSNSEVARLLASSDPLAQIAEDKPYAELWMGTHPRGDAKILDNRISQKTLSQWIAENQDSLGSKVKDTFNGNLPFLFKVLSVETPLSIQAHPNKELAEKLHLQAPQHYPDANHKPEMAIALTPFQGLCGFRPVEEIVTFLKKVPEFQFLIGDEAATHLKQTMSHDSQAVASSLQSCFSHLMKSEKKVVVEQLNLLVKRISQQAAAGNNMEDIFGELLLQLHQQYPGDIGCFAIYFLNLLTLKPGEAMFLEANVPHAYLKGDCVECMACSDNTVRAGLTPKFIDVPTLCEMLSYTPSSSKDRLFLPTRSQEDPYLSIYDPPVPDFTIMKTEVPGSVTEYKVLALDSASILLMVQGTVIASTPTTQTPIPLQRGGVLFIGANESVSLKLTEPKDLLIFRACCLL
# [5] = Trypanosoma cruzi growth suppression in host cells – NIH3T3 host cells, beta-gal luminescence, confirmation (AID 2044); format: functional, cell-based;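 note: intracellular parasites grown in NIH/3T3 mouse fibroblasts as host cells; luminescent beta-galactosidase reporter signal from transgenic T. cruzi replicating inside host cells; inhibitors lower the luminescence signal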
# [6] = NIH3T3 cell viability loss – ATP luminescence, mouse fibroblasts, counter-screen, dose response (AID 2010); format: functional, cell-based;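 note: cells exposed to compound for about 90 hours before reading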
# [7] = target: T1, Mannose-6-phosphate isomerase; assay: MPI inhibition at elevated mannose 6-phosphate – biochemical, fluorescence intensity, high mannose 6-phosphate, primary screen (AID 1220)
# [8] = THP-1 cell cytotoxicity, dose response, cytotoxicity control for non-replicating M. tuberculosis project (AID 489025); format: functional
# [9] = HepG2 cell cytotoxicity, dose response, cytotoxicity control for non-replicating M. tuberculosis project (AID 489018); format: functional; details: Mycobacterium tuberculosis
# [10] = Vero E6 cell cytotoxicity, dose response, cytotoxicity control for non-replicating M. tuberculosis project, secondary assay (AID 492998); format: functional, VeroE6; details: Vero C1008
# [11] = target: Lysine-specific demethylase 4C (Homo sapiens, UniProt Q9H3R0); assay: inhibition of JMJD2C H3K9me3 demethylation – biochemical, DELFIA europium, cherry-picked samples, dose response (AID 488835); format: functional
# cells = format: functional
# INS1 = assay: INS-1E survival protection against cytokine death – cell-based, luminescence, retest, dose response (AID 449756); format: functional; details: Rattus norvegicus;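 note: cell death triggered by IL-1 beta plus TNF-alpha plus IFN-gamma mixture; protective hits raise ATP signal compared with cytokine alone wells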
# Protein Wnt-3a = Protein Wnt-3a (Mus musculus, UniProt P27467); assay: antagonism of Wnt3a pathway luciferase reporter – Wnt-LIGHT cells, luminescence, selectivity assay for Gli-SUFU antagonist project, dose response (AID 651570); format: functional; details: read-out: IC50_Mean;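 note: Wnt-LIGHT reporter cells stimulated with conditioned medium from Wnt3a-producing cells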
# Mu-type opioid receptor [12] = target: T2, Mu-type opioid receptor (Homo sapiens, UniProt P35372); assay: SAR Analysis of Antagonists of the MOR Receptor using an Image-Based Assay - Set 3. [Related pubchem assays (depositor defined):AID1777, AID1785, AID1786, AID1966, AID2133, AID2136, AID2284, AID2285, AID2420]; format: functional
# [13] = target: T3, Delta-type opioid receptor (Homo sapiens, UniProt P41143); assay: SAR Analysis of Antagonists of the DOR Receptor using an Image-Based Assay - Set 3. [Related pubchem assays (depositor defined):AID1777, AID1785]; format: functional
# [14] = target: T4, Kappa-type opioid receptor (Homo sapiens, UniProt P41145); assay: SAR analysis of small molecule antagonists of the kappa opioid receptor via a luminescent beta-arrestin assay - Set 3. [Related pubchem assays (depositor defined):AID1777, AID1778, AID1785, AID1786, AID1966, AID2133, AID2136, AID2285, AID2495]; format: functional
# [15] = target: T4, Kappa-type opioid receptor; assay: SAR analysis of Antagonists of the Kappa Opioid Receptor (KOR) using an Image-Based Assay - Set 3. [Related pubchem assays (depositor defined):AID1777, AID1785]; format: functional
# [16] = target: T3, Delta-type opioid receptor; assay: HTS Image-Based Screen for Antagonists of the DOR Receptor. [Related pubchem assays (depositor defined):AID1777, AID1785, AID1786, AID2133]; format: functional
# Mu-type opioid receptor [17] = target: T2, Mu-type opioid receptor; assay: HTS Image-Based Screen for Agonists of the MOR Receptor. [Related pubchem assays (depositor defined):AID1777, AID1785, AID1786, AID2133]; format: functional
# [18] = target: T3, Delta-type opioid receptor; assay: HTS Image-Based Screen for Agonists of the DOR Receptor. [Related pubchem assays (depositor defined):AID1777, AID1786, AID2133]; format: functional
# [19] = target: T4, Kappa-type opioid receptor; format: functional
# [20] = target: T4, Kappa-type opioid receptor; format: functional; remark: listed apart in the source
# [21] = target: T4, Kappa-type opioid receptor; assay: SAR analysis of small molecule agonists of the kappa opioid receptor via a luminescent beta-arrestin assay. [Related pubchem assays (depositor defined):AID1777, AID1786, AID1966, AID2133, AID2136, AID2348, AID2352, AID2357, AID2359, AID2370, AID2420, AID2478, AID2491, AID2492, AID2493, AID2497, AID2498, AID2500, AID449737, AID488822, AID488842]; format: functional
# Mu-type opioid receptor [22] = target: T2, Mu-type opioid receptor; assay: mu opioid receptor activators, image-based, SAR follow-up (AID 2352); format: functional
# [23] = target: T3, Delta-type opioid receptor; assay: DOR agonists, SAR follow-up, image-based (AID 2370); format: functional
# [24] = target: T4, Kappa-type opioid receptor; assay: kappa opioid receptor blockers, image-based, SAR follow-up (AID 2348); format: functional
# Mu-type opioid receptor [25] = target: T2, Mu-type opioid receptor; assay: mu opioid receptor blockers – image-based, SAR follow-up (AID 2420); format: functional;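 note: compounds added before stimulation of receptor with agonist DAMGO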
# [26] = target: T4, Kappa-type opioid receptor; assay: kappa opioid receptor activation potency – imaging, image-based, SAR follow-up (AID 2359); format: functional
# [27] = target: T3, Delta-type opioid receptor; assay: delta opioid receptor blockers – image-based, SAR follow-up (AID 2357); format: functional
# [28] = target: 1-acylglycerol-3-phosphate O-acyltransferase ABHD5/Perilipin-5 (Homo sapiens, UniProt Q00G26+Q8WTS1); assay: Luminescence-based biochemical high throughput dose response assay for inhibitors of the interaction of the lipase co-activator protein, abhydrolase domain containing 5 (ABHD5) with perilipin-5 (MLDP; PLIN5) (2K validation set). [Related pubchem assays (depositor defined):AID493035, AID493241]
# Perilipin-1/ABHD5 = Perilipin-1/ABHD5 (Homo sapiens, UniProt O60240+Q8WTS1); assay: Luminescence-based biochemical high throughput dose response assay for inhibitors of the interaction of the lipase co-activator protein, abhydrolase domain containing 5 (ABHD5) with perilipin-1 (PLIN1) (2K validation set). [Related pubchem assays (depositor defined):AID493027, AID493057]
# Troponin, cardiac muscle = Troponin, cardiac muscle (Homo sapiens, UniProt P19429+P45379+P63316); assay: Fluorescence-based biochemical high throughput dose response assay for activators of the calcium sensitivity of cardiac Regulated Thin Filaments (RTF). [Related pubchem assays (depositor defined):AID493008, AID493018, AID504382, AID504383]; format: protein-complex assay
# T3 sequence (P41143 whole entry): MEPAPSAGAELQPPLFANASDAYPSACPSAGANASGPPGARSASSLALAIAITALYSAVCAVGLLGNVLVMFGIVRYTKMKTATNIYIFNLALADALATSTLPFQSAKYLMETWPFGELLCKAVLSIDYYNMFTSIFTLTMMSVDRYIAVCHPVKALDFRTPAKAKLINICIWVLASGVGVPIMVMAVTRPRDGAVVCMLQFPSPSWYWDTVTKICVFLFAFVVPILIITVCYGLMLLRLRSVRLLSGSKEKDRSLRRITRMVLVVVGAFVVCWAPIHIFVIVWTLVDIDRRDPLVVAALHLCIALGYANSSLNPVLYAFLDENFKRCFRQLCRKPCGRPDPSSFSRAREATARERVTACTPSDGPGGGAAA
# T2 sequence (P35372 whole entry): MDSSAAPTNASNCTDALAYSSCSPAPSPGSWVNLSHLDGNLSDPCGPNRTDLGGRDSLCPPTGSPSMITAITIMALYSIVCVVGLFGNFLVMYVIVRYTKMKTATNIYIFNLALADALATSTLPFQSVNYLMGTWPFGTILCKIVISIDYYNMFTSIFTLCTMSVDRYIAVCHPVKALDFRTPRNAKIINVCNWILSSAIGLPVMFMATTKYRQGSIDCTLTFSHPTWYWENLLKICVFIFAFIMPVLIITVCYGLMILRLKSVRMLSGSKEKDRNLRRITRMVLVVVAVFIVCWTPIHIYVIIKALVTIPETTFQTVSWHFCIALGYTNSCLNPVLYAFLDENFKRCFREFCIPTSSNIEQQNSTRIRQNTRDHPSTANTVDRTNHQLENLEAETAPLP
# T4 sequence (P41145 whole entry): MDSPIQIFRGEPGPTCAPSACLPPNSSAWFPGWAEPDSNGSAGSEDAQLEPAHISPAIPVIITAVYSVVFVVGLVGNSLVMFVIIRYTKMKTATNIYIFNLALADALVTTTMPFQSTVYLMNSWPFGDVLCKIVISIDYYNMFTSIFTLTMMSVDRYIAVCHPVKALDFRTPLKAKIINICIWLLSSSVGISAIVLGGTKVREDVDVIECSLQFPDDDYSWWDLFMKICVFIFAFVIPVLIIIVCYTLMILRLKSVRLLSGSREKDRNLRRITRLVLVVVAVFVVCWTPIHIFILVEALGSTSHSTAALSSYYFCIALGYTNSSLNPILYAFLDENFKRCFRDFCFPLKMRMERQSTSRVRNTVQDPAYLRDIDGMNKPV
# Sequence of Perilipin-1/ABHD5 (Q8WTS1 whole entry, the tested form may be a part): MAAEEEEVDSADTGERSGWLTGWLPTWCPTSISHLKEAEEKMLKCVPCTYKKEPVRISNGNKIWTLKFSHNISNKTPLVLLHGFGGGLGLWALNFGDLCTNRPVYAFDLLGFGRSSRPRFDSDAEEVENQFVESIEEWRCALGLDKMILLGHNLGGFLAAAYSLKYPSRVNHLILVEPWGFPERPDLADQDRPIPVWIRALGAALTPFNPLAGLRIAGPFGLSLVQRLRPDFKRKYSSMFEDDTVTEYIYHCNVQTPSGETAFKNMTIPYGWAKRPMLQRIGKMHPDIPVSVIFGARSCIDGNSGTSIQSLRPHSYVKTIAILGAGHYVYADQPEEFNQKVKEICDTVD
# Sequence of Perilipin-1/ABHD5 (O60240 whole entry, the tested form may be a part): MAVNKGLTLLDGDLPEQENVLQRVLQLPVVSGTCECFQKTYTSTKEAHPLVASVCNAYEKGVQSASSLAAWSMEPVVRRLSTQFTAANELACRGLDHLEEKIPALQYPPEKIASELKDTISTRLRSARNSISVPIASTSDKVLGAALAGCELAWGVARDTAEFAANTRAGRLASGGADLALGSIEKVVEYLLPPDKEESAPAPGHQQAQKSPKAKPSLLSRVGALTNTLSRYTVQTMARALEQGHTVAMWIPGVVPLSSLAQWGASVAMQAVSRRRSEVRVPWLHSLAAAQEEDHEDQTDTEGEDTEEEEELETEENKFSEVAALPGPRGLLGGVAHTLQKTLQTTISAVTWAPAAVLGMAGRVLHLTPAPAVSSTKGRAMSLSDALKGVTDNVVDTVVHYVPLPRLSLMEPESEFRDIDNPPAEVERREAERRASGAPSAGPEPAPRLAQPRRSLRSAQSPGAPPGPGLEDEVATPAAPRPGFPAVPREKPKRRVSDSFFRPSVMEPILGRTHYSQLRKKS
# Sequence of 1-acylglycerol-3-phosphate O-acyltransferase ABHD5/Perilipin-5 (Q00G26 whole entry, the tested form may be a part): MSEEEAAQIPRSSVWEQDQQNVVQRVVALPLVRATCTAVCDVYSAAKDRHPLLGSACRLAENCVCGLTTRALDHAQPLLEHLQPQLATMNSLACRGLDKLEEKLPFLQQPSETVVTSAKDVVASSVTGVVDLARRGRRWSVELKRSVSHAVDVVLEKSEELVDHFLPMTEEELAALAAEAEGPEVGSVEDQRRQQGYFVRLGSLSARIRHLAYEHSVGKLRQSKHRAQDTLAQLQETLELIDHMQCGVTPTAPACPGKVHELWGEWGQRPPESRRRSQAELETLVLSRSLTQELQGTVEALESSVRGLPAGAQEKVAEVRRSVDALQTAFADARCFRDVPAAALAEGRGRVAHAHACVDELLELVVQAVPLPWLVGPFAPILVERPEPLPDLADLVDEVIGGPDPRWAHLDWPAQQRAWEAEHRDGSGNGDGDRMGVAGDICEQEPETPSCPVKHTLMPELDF
# Sequence of 1-acylglycerol-3-phosphate O-acyltransferase ABHD5/Perilipin-5 (Q8WTS1 whole entry, the tested form may be a part): as the sequence (Q8WTS1 whole entry, the tested form may be a part) above
# Sequence of Lysine-specific demethylase 4C (Q9H3R0 whole entry): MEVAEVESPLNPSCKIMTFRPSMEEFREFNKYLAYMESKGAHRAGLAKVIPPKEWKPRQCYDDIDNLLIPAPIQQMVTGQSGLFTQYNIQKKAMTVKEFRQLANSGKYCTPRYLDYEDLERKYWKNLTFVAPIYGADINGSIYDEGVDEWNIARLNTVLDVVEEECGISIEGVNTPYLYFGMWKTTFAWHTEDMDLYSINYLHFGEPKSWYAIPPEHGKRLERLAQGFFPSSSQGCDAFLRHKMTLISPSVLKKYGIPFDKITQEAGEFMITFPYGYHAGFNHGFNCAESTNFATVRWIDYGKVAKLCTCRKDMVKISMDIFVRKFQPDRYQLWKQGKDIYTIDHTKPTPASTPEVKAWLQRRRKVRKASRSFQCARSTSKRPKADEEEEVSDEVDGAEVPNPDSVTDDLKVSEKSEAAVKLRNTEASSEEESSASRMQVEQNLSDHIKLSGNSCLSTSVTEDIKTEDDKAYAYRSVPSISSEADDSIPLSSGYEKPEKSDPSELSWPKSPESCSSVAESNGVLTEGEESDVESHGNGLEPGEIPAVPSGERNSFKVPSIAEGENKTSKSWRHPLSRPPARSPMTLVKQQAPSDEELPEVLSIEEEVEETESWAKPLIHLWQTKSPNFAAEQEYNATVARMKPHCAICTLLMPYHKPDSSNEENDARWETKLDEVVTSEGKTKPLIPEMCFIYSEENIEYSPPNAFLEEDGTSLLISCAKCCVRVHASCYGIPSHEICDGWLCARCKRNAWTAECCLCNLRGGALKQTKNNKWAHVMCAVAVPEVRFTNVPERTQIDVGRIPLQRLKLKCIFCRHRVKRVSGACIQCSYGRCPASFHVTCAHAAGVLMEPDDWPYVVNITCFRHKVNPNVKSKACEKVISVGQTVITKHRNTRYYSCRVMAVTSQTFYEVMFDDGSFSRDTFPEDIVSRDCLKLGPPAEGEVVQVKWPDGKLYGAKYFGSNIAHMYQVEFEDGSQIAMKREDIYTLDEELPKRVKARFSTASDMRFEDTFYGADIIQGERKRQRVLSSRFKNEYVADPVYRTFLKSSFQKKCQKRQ
# Sequence of Protein Wnt-3a (P27467 whole entry): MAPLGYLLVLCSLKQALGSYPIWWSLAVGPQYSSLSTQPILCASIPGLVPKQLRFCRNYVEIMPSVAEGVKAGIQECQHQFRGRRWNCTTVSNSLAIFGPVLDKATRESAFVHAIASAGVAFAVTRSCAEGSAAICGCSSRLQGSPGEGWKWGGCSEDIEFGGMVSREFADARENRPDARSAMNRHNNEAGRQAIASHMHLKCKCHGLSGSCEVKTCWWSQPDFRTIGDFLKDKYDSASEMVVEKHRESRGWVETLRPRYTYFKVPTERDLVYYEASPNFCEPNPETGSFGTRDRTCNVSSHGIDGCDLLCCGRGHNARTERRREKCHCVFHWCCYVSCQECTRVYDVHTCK
structure (smiles),measurement,setting,value
Cc1cc(N/N=C/c2ccc(O)cc2O)nc(-n2nc(C)cc2C)n1,EC50,[1],10.9 µM (active)
same,EC50,[2],11.4 µM (active)
same,EC50,[3],11.2 µM (active)
same,IC50,[4],> 50 µM (not active)
same,EC50,[5],2.05 µM (active)
same,EC50,[6],> 30 µM (not active)
same,IC50,[7],> 50 µM (not active)
same,CC50,[8],8.18 µM (active)
same,CC50,[9],11.4 µM (active)
same,CC50,[10],3.72 µM (active)
same,AC50,[11],2.7 µM (active)
same,IC50,cells,0.18 µM (active)
same,AC50,INS1,0.3 µM (active)
same,IC50,Protein Wnt-3a,41.3 µM (inactive)
Cc1ccc(CN(CCNC(=O)c2ccc(CNS(=O)(=O)c3ccc(C)cc3)cc2)C(C)C)cc1,IC50,Mu-type opioid receptor [12],> 32 µM (inactive)
same,IC50,[13],> 32 µM (inactive)
same,IC50,[14],1.17 µM (active)
same,IC50,[15],0.246 µM (active)
CCC(C)(C(=O)NC1CCCCC1)N(Cc1ccco1)C(=O)c1cnccn1 (stereo not drawn),IC50,[16],> 32 µM (inactive)
same,EC50,Mu-type opioid receptor [17],> 32 µM (inactive)
same,EC50,[18],> 32 µM (inactive)
same,EC50,[19],1.75 µM
same,EC50,[20],2.47 µM
same,EC50,[21],3.71 µM (active)
same,EC50,Mu-type opioid receptor [22],> 32 µM (inactive)
same,EC50,[23],> 32 µM (inactive)
same,IC50,[24],> 32 µM (inactive)
same,IC50,Mu-type opioid receptor [25],> 32 µM (inactive)
same,EC50,[26],1.36 µM (active)
same,IC50,[27],> 32 µM (inactive)
COc1ccccc1C(=O)Oc1ccc2c(c1)O/C(=C\c1ccncc1)C2=O,IC50,[28],8.12 µM (active)
same,IC50,Perilipin-1/ABHD5,6.72 µM (active)
same,EC50,"Troponin, cardiac muscle",13.7 µM (inactive)
